Measurements as given in US7465824B2, “Process for the production of high purity aromatic carboxylic acids using a benzoic acid and water solvent for oxidation and purification” (BP Corporation North America Inc., priority 2007, dated 2008).

Assay: Solubility of TA in a solvent containing 50% benzoic acid and 50% water at various temperatures
Format: physicochemical
Details: solvent 50% benzoic acid and 50% water
Protocol: The solubility of TA in a solvent containing 50% benzoic acid and 50% water was determined at various temperatures and is shown below in Table 1.

solubility of TA given in Example 1 (at 455 °F): 10.9% | TA Solubility (Temp 397 °F): 5.04 g TA/100 g Solution | TA Solubility (Temp 436 °F): 8.58 g TA/100 g Solution | TA Solubility (Temp 446 °F): 9.59 g TA/100 g Solution | TA Solubility (Temp 451 °F): 9.77 g TA/100 g Solution | TA Solubility (Temp 455 °F): 10.91 g TA/100 g Solution | TA Solubility (Temp 477 °F): 13.49 g TA/100 g Solution | TA Solubility (Temp 505 °F): 18.71 g TA/100 g Solution
SMILES: O=C(O)c1ccc(C(=O)O)cc1 [TA, terephthalic acid]
